{
  "source": "ChEMBL document CHEMBL4507270",
  "about": "(2021)",
  "key": {"[1]": {"target": "Ephrin type-A receptor 5 (Homo sapiens) (UniProt P54756)"}, "[2]": {"target": "Mitogen-activated protein kinase kinase kinase 1 (Homo sapiens) (UniProt Q13233)"}, "[3]": {"target": "Serine/threonine-protein kinase 32C (Homo sapiens) (UniProt Q86UX6)"}, "[4]": {"tested_on": "Phosphatidylinositol 4,5-bisphosphate 3-kinase catalytic subunit alpha isoform (Homo sapiens), P42336 [C420R]"}, "[5]": {"target": "Calcium/calmodulin-dependent protein kinase type 1B (Homo sapiens) (UniProt Q6P2M8)", "sequence (Q6P2M8 whole entry)": "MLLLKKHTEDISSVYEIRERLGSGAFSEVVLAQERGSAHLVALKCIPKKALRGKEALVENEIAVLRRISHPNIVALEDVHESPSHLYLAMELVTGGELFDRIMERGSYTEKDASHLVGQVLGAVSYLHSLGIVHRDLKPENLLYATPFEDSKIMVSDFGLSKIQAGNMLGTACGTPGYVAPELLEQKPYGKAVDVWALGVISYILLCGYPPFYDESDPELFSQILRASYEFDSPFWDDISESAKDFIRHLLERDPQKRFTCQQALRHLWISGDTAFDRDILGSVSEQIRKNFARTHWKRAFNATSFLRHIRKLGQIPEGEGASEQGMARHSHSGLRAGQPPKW"}, "[6]": {"target": "Casein kinase I isoform gamma-3 (Homo sapiens) (UniProt Q9Y6M4)"}, "[7]": {"target": "Casein kinase I isoform delta (Homo sapiens) (UniProt P48730)"}, "[8]": {"target": "Serine/threonine-protein kinase MAK (Homo sapiens) (UniProt P20794)"}, "[9]": {"target": "Mitogen-activated protein kinase kinase kinase 4 (Homo sapiens) (UniProt Q9Y6R4)"}, "[10]": {"target": "Serine/threonine-protein kinase haspin (Homo sapiens) (UniProt Q8TF76)"}, "[11]": {"target": "Vascular endothelial growth factor receptor 1 (Homo sapiens) (UniProt P17948)"}, "[12]": {"assay": "NanoBRET assay (SGC Frankfurt) with LYN", "conditions": "Homo sapiens; call rule not given here"}, "[13]": {"target": "Mitogen-activated protein kinase kinase kinase kinase 5 (Homo sapiens) (UniProt Q9Y4K4)"}, "[14]": {"target": "Serine/threonine-protein kinase MRCK beta (Homo sapiens) (UniProt Q9Y5S2)"}, "[15]": {"target": "Mitogen-activated protein kinase kinase kinase 20 (Homo sapiens) (UniProt Q9NYL2)"}, "[16]": {"target": "Mitogen-activated protein kinase 11 (Homo sapiens) (UniProt Q15759)", "sequence (Q15759 whole entry)": "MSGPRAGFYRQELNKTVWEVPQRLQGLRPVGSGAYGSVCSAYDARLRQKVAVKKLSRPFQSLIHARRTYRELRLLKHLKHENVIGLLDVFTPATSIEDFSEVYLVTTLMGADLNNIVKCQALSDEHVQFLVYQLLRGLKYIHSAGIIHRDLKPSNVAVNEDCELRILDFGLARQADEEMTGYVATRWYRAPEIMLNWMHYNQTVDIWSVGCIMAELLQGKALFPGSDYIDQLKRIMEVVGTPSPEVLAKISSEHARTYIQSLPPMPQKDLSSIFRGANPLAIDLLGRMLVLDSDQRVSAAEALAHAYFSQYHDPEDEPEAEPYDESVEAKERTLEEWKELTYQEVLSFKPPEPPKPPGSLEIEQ"}, "[17]": {"tested_on": "ALK tyrosine kinase receptor (Homo sapiens), Q9UM73 [C1156Y]"}, "[18]": {"target": "Myosin light chain kinase 2, skeletal/cardiac muscle (Homo sapiens) (UniProt Q9H1R3)"}, "[19]": {"target": "Leucine-rich repeat serine/threonine-protein kinase 2 (Homo sapiens) (UniProt Q5S007)", "sequence (Q5S007 whole entry)": "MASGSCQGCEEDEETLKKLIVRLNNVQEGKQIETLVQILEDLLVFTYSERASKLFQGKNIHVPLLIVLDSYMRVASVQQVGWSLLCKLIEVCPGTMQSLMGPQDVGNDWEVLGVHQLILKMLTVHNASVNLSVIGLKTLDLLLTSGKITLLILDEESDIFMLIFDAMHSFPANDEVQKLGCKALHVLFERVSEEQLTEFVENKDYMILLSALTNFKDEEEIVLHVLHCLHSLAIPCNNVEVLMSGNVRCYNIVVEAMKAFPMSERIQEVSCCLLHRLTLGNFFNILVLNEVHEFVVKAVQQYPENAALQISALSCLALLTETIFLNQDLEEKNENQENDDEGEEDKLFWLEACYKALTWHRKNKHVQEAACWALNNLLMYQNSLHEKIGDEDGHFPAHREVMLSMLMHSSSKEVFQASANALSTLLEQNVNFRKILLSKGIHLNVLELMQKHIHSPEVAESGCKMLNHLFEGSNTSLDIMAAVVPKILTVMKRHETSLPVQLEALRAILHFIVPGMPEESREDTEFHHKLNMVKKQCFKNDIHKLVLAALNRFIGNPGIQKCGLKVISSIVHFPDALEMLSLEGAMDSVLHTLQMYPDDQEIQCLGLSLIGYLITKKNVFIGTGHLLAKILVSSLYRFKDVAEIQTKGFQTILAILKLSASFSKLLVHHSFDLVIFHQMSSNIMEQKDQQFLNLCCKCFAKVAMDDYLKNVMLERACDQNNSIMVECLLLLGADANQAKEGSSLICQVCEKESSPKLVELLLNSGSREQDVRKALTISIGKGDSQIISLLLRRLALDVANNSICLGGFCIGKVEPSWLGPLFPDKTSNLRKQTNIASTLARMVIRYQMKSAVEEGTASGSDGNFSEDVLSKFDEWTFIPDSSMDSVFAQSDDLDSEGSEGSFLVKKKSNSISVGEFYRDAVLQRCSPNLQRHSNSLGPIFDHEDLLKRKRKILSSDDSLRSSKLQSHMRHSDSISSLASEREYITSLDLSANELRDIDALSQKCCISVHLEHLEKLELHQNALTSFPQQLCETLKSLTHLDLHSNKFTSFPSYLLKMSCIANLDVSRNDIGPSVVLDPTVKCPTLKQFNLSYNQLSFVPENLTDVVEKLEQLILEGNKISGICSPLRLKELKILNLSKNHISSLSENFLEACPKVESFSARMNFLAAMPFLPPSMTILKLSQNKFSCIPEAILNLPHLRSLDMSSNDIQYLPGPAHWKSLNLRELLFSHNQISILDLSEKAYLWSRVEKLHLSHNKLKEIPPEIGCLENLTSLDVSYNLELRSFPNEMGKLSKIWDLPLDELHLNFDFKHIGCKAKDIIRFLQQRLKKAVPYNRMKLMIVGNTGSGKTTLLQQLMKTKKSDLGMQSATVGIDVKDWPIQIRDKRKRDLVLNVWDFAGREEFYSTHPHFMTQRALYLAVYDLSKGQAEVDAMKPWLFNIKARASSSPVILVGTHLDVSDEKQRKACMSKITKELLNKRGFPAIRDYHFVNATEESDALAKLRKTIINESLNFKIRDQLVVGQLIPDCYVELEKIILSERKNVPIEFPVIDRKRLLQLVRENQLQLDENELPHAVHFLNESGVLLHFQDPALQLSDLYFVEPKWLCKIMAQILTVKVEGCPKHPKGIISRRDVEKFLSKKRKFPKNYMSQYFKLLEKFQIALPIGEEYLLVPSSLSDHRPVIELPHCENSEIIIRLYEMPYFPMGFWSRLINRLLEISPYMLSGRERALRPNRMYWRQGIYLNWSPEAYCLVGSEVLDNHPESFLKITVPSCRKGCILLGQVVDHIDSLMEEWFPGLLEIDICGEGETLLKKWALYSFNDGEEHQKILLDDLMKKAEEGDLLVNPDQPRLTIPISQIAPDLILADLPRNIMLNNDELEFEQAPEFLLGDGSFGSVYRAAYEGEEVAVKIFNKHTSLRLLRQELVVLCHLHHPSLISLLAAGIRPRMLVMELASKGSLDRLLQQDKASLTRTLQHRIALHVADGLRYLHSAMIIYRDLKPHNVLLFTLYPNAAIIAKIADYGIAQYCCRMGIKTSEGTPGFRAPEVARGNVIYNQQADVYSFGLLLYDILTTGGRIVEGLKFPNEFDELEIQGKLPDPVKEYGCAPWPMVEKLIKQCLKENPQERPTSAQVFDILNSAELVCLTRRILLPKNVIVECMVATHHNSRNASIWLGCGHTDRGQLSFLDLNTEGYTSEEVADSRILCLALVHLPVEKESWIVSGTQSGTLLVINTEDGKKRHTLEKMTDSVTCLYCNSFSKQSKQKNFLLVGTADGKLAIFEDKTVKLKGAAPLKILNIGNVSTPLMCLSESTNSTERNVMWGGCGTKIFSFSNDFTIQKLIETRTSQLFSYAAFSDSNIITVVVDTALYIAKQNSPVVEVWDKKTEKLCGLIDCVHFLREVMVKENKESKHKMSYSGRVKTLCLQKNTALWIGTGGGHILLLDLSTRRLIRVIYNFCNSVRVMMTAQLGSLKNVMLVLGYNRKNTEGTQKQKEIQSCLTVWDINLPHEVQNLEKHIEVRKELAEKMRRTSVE"}, "[20]": {"target": "Serine/threonine-protein kinase MARK1 (Homo sapiens) (UniProt Q9P0L2)"}, "[21]": {"target": "5-hydroxytryptamine receptor 1B (Homo sapiens) (UniProt P28222)", "conditions": "Compound concentration 10.0 uM"}, "[22]": {"target": "Macrophage colony-stimulating factor 1 receptor (Homo sapiens) (UniProt P07333)", "sequence (P07333 whole entry)": "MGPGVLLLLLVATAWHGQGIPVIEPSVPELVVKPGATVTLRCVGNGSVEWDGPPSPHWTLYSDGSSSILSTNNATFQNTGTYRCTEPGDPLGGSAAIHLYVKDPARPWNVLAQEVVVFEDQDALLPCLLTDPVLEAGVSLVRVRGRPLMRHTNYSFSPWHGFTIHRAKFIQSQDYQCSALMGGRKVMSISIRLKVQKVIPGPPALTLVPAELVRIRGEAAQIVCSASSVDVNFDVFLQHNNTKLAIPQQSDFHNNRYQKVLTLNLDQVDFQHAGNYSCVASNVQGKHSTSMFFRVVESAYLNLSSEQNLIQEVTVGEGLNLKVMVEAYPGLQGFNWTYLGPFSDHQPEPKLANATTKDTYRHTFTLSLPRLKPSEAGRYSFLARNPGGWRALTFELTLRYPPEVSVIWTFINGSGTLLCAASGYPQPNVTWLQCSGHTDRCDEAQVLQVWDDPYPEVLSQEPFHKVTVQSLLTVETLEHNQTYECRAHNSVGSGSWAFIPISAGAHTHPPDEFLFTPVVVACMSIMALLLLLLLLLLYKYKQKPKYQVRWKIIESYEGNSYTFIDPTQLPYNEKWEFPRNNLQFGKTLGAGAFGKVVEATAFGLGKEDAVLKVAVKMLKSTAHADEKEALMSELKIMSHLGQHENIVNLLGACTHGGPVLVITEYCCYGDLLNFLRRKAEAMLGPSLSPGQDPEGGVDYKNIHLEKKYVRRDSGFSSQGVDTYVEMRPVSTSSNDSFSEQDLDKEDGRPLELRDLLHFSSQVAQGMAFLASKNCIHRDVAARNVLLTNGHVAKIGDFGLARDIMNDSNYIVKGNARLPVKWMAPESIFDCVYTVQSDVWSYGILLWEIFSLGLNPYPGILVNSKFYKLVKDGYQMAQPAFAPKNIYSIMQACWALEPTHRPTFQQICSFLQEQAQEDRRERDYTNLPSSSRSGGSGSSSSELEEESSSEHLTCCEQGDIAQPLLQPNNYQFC"}, "[23]": {"target": "Serine/threonine-protein kinase D2 (Homo sapiens) (UniProt Q9BZL6)"}, "[24]": {"target": "Tyrosine-protein kinase FRK (Homo sapiens) (UniProt P42685)"}, "[25]": {"target": "Fibroblast growth factor receptor 3 (Homo sapiens, UniProt P22607)"}, "[26]": {"target": "Interferon-induced, double-stranded RNA-activated protein kinase (Homo sapiens) (UniProt P19525)", "sequence (P19525 whole entry)": "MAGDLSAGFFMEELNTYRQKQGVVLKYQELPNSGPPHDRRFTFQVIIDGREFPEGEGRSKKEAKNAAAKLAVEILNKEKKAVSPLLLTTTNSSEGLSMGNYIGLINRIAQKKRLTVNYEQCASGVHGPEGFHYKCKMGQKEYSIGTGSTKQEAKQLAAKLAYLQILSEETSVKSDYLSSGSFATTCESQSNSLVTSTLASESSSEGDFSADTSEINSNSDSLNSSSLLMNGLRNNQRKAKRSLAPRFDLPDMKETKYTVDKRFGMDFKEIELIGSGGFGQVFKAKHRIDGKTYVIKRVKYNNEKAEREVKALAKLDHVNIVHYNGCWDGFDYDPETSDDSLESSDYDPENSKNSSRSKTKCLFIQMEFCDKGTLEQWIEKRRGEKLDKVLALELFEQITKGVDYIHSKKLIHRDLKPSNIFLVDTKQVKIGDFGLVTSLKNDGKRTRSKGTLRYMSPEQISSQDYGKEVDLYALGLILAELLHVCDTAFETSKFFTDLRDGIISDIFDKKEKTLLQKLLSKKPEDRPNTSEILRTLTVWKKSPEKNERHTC"}, "[27]": {"target": "Tyrosine-protein kinase Yes (Homo sapiens) (UniProt P07947)"}, "[28]": {"target": "Serine/threonine-protein kinase PAK 3 (Homo sapiens) (UniProt O75914)"}, "[29]": {"target": "Dual specificity mitogen-activated protein kinase kinase 6 (Homo sapiens) (UniProt P52564)"}, "[30]": {"target": "TGF-beta receptor type-1 (Homo sapiens) (UniProt P36897)"}, "[31]": {"target": "Receptor tyrosine-protein kinase erbB-3 (Homo sapiens) (UniProt P21860)"}, "[32]": {"target": "LIM domain kinase 1 (Homo sapiens) (UniProt P53667)"}, "[33]": {"target": "Testis-specific serine/threonine-protein kinase 3 (Homo sapiens) (UniProt Q96PN8)", "sequence (Q96PN8 whole entry)": "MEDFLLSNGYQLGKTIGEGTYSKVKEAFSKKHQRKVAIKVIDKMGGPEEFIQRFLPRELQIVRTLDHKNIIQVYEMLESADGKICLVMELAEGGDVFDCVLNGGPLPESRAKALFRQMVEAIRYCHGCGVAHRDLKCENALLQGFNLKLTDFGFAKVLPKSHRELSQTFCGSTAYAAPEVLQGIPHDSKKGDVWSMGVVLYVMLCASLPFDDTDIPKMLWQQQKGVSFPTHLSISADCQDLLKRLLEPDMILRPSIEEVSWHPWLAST"}, "[34]": {"conditions": "Compound concentration 1000.0 nM"}, "[35]": {"conditions": "Compound concentration 100.0 nM"}},
  "data": [
    {"smiles": "Cc1cc(NC(=O)c2cccc(S(F)(F)(F)(F)F)c2)cc(-n2ccn3nc(-c4cccnc4)cc23)c1", "note": "[BAY-309]", "values": [
      {"measurement": "residual activity", "setting": "[1]; [34]", "result": 100, "unit": "%"},
      {"measurement": "residual activity", "setting": "[2]; [34]", "result": 90, "unit": "%"},
      {"measurement": "residual activity", "setting": "[3]; [34]", "result": 75.8, "unit": "%"},
      {"measurement": "residual activity", "setting": "[4]; [34]", "result": 97.1, "unit": "%"},
      {"measurement": "residual activity", "setting": "[5]; [34]", "result": 100, "unit": "%"},
      {"measurement": "residual activity", "setting": "[6]; [34]", "result": 100, "unit": "%"},
      {"measurement": "residual activity", "setting": "[7]; [34]", "result": 100, "unit": "%"},
      {"measurement": "residual activity", "setting": "[8]; [34]", "result": 100, "unit": "%"},
      {"measurement": "residual activity", "setting": "[9]; [34]", "result": 53.6, "unit": "%"},
      {"measurement": "residual activity", "setting": "[10]; [34]", "result": 70.9, "unit": "%"},
      {"measurement": "residual activity", "setting": "[11]; [34]", "result": 100, "unit": "%"},
      {"measurement": "EC50", "setting": "[12]", "result": "> 50 µM (not active)"},
      {"measurement": "IC50", "setting": "[12]", "result": "7 µM (not active)"},
      {"measurement": "residual activity", "setting": "[13]; [34]", "result": 100, "unit": "%"},
      {"measurement": "residual activity", "setting": "[14]; [34]", "result": 100, "unit": "%"},
      {"measurement": "residual activity", "setting": "[15]; [34]", "result": 84.4, "unit": "%"},
      {"measurement": "residual activity", "setting": "[16]; [34]", "result": 98.1, "unit": "%"},
      {"measurement": "residual activity", "setting": "[17]; [34]", "result": 100, "unit": "%"},
      {"measurement": "residual activity", "setting": "[18]; [34]", "result": 100, "unit": "%"},
      {"measurement": "residual activity", "setting": "[19]; [34]", "result": 74.6, "unit": "%"},
      {"measurement": "residual activity", "setting": "[20]; [34]", "result": 100, "unit": "%"},
      {"measurement": "inhibition", "setting": "[21]", "result": 36.8, "unit": "%"},
      {"measurement": "residual activity", "setting": "[22]; [34]", "result": 100, "unit": "%"},
      {"measurement": "residual activity", "setting": "[23]; [34]", "result": 100, "unit": "%"},
      {"measurement": "residual activity", "setting": "[24]; [34]", "result": 100, "unit": "%"},
      {"measurement": "residual activity", "setting": "[25]; [34]", "result": 90.7, "unit": "%"},
      {"measurement": "residual activity", "setting": "[26]; [34]", "result": 72.7, "unit": "%"},
      {"measurement": "residual activity", "setting": "[27]; [34]", "result": 100, "unit": "%"},
      {"measurement": "residual activity", "setting": "[28]; [34]", "result": 100, "unit": "%"},
      {"measurement": "residual activity", "setting": "[29]; [34]", "result": 100, "unit": "%"},
      {"measurement": "residual activity", "setting": "[30]; [34]", "result": 74.3, "unit": "%"},
      {"measurement": "residual activity", "setting": "[31]; [34]", "result": 49.4, "unit": "%"},
      {"measurement": "residual activity", "setting": "[32]; [34]", "result": 100, "unit": "%"},
      {"measurement": "residual activity", "setting": "[33]; [34]", "result": 100, "unit": "%"}
    ]},
    {"smiles": "Cc1cc(C)c(-n2ccn3nc(-c4cccnc4)cc23)cc1NC(=O)c1cc(C#N)cc(S(F)(F)(F)(F)F)c1", "note": "[BAY-826]", "values": [
      {"measurement": "residual activity", "setting": "[1]; [35]", "result": 92.4, "unit": "%"},
      {"measurement": "residual activity", "setting": "[2]; [35]", "result": 78.3, "unit": "%"},
      {"measurement": "residual activity", "setting": "[3]; [35]", "result": 83.4, "unit": "%"},
      {"measurement": "residual activity", "setting": "[4]; [35]", "result": 85.4, "unit": "%"},
      {"measurement": "residual activity", "setting": "[5]; [35]", "result": 83.6, "unit": "%"},
      {"measurement": "residual activity", "setting": "[6]; [35]", "result": 93.7, "unit": "%"},
      {"measurement": "residual activity", "setting": "[7]; [35]", "result": 100, "unit": "%"},
      {"measurement": "residual activity", "setting": "[8]; [35]", "result": 77.2, "unit": "%"},
      {"measurement": "residual activity", "setting": "[9]; [35]", "result": 98.1, "unit": "%"},
      {"measurement": "residual activity", "setting": "[10]; [35]", "result": 64, "unit": "%"},
      {"measurement": "residual activity", "setting": "[11]; [35]", "result": 91.5, "unit": "%"},
      {"measurement": "EC50", "setting": "[12]", "result": "7.4 µM (not active)"},
      {"measurement": "IC50", "setting": "[12]", "result": "8.2 µM (not active)"},
      {"measurement": "residual activity", "setting": "[13]; [35]", "result": 83.4, "unit": "%"},
      {"measurement": "residual activity", "setting": "[14]; [35]", "result": 95.5, "unit": "%"},
      {"measurement": "residual activity", "setting": "[15]; [35]", "result": 97.5, "unit": "%"},
      {"measurement": "residual activity", "setting": "[16]; [35]", "result": 93.4, "unit": "%"},
      {"measurement": "residual activity", "setting": "[17]; [35]", "result": 76.6, "unit": "%"},
      {"measurement": "residual activity", "setting": "[18]; [35]", "result": 100, "unit": "%"},
      {"measurement": "residual activity", "setting": "[19]; [35]", "result": 83.5, "unit": "%"},
      {"measurement": "residual activity", "setting": "[20]; [35]", "result": 96.7, "unit": "%"},
      {"measurement": "inhibition", "setting": "[21]", "result": 14.4, "unit": "%"},
      {"measurement": "residual activity", "setting": "[22]; [35]", "result": 85.5, "unit": "%"},
      {"measurement": "residual activity", "setting": "[23]; [35]", "result": 100, "unit": "%"},
      {"measurement": "residual activity", "setting": "[24]; [35]", "result": 59.1, "unit": "%"},
      {"measurement": "residual activity", "setting": "[25]; [35]", "result": 95.6, "unit": "%"},
      {"measurement": "residual activity", "setting": "[26]; [35]", "result": 96.4, "unit": "%"},
      {"measurement": "residual activity", "setting": "[27]; [35]", "result": 70.7, "unit": "%"},
      {"measurement": "residual activity", "setting": "[28]; [35]", "result": 26.1, "unit": "%"},
      {"measurement": "residual activity", "setting": "[29]; [35]", "result": 100, "unit": "%"},
      {"measurement": "residual activity", "setting": "[30]; [35]", "result": 98.2, "unit": "%"},
      {"measurement": "residual activity", "setting": "[31]; [35]", "result": 96.2, "unit": "%"},
      {"measurement": "residual activity", "setting": "[32]; [35]", "result": 83.6, "unit": "%"},
      {"measurement": "residual activity", "setting": "[33]; [35]", "result": 76.9, "unit": "%"}
    ]}
  ]
}
